Where no end group is shown, it is not given here. [ ]: non-standard residue; d: D form. FAM = carboxyfluorescein fluorophore label
Assays:
[1] = test system: 15 proteases in the LUAD protease panel; assay: in vitro recombinant protease screen of FRET-paired substrates; assay type: biochemical; details: fluorescence fold change at 45 minutes; 1 μM substrate, 12.5 nM recombinant enzyme; MP metallo-, SP serine, AP aspartic protease
Source text: Hundreds of peptide sequences have been previously designed and validated as protease substrates, leveraging known catalytic specificities of different protease families, published datasets and substrate sequences in databases like cutDB and MEROPS (Igarashi et al., Nucleic Acids Res 35, D546-549, 2007; Rawlings et al., Nucleic Acids Res 46, D624-D632, 2018). Fourteen of these substrates were nominated in an effort to cover the specificity profiles of metallo-, serine and aspartic endoproteases, all of which were included in the LUAD protease panel, and the catalytic activity of each protease-substrate pair was characterized. Quenched probes that incorporated the 14 peptide substrates were synthesized such that they fluoresce upon proteolytic cleavage to enable real-time monitoring of protease activity in vitro (FIG. 3A and Table 2). Each probe was incubated with each protease in the panel and fluorescence was monitored over 45 minutes. Shown are sample kinetic plots monitoring dequenching of the 14 FRET-paired probes when incubated with (above) and without (below) recombinant matrix metalloproteinase 3 (MMP3) (FIG. 3B). […] See also FIG. 19.
Fluorogenic protease substrates were synthesized by CPC Scientific. Recombinant proteases were purchased from Enzo Life Sciences, R&D Systems and Haematologic Technologies. For recombinant protease assays, fluorogenic substrates PPQ1-14 (1 μM final concentration) were incubated in 30 μL final volume in appropriate enzyme buffer, according to manufacturer specifications, with 12.5 nM recombinant enzyme at 37° C. (FIG. 3). Proteolytic cleavage of substrates was quantified by increases in fluorescence over time by fluorimeter (Tecan Infinite M200 Pro). Enzyme cleavage rates were quantified as relative fluorescence increase over time normalized to fluorescence before addition of protease. Hierarchical clustering was performed in GENE-E, using fluorescence fold changes at 45 minutes.

[2] = test system: Kras and p53 mutant lung adenocarcinoma (KP mice); assay: urinary ABN readout and random forest classification in KP lung adenocarcinoma model; assay type: in vivo; details: KP mice
Protocol: To characterize ABN performance in vivo, 14 protease-sensitive ABNs were administered to KP mice and healthy, age and sex-matched controls at 5, 7.5 and 10.5 weeks after tumor initiation. Mouse bladders were voided one hour after intrapulmonary delivery and all fresh urine produced during the subsequent hour (from 60-120 minutes after administration) was pooled and collected. LC-MS/MS was performed and peak area ratios (defined as peak area of urinary reporter divided by peak area of spiked-in internal standard) of protease-sensitive reporters were mean-normalized within each sample to reduce mouse-to-mouse variation.
A random forest classifier was then sought to be built to enable prospective diagnosis of lung cancer in KP mice. Random forest is a high-performance classifier, applicable to a wide variety of classification tasks, that generates a collection of decision trees (a “forest”) that are sampled to produce classification results (Breiman, Machine Learning 45, 5-32, 2001). A random forest classifier was trained using 50% of control mice at 5 weeks, 7.5 weeks and 10.5 weeks, as well as 50% of KP mice at 7.5 weeks (FIG. 6A). The classifier assigned a probability that each mouse belonged to either the KP cohort or the healthy control cohort (FIG. 6B, “Training” panel), achieving perfect separation of control and KP mice. The classifier was then sought to be tested on an independent validation cohort consisting of classifier-naive KP mice at 5 weeks, 7.5 weeks and 10.5 weeks post-induction, as well as the remaining control mice from each time point.
Male B6/SV129 Kras^LSL-G12D/+; Trp53^fl/fl (KP) mice between 18 and 30 weeks old were used for lung adenocarcinoma experiments. Tumors were initiated, as described previously (DuPage et al., Nat Protoc 4, 1064-1072 (2009)), by the intratracheal administration of 50 μL of adenovirus-SPC-Cre (2.5×10^8 PFU in Opti-MEM with 10 mM CaCl2)) under isoflurane anesthesia. […] Tumor growth was monitored by micro computed tomography (microCT) imaging (General Electric) and was scored by a blinded radiation oncologist using MicroView (Parallax Innovations) (Table 4). Tumor volumes were calculated by using the ROI sphere/elliptical tool.
ABN constructs (GluFib-Substrate-PEG-840 kDa) for urinary experiments were synthesized by CPC Scientific (Sunnyvale, CA). ABNs were dosed (50 μL total volume, 20 μM concentration per ABN) by intratracheal intubation, as described above. Bladders were voided 60 minutes after ABN administration and all urine produced 60-120 min after ABN administration was collected using custom tubes in which the animals rest upon 96-well plates that capture urine. Urine was pooled and frozen at −80° C. until analysis by LC-MS/MS.
Liquid chromatography/tandem mass spectrometry was performed by Syneos Health (Princeton, NJ) using a Sciex 6500 triple quadrupole instrument. Briefly, urine samples were treated with UV irradiation to photocleave the ANP linker and liberate the Glu-Fib reporter from residual peptide fragments. Samples were extracted by solid-phase extraction and analyzed by multiple reaction monitoring by LC-MS/MS to quantify concentration of each Glu-Fib mass variant. Analyte quantities were normalized to a spiked-in internal standard and concentrations were calculated from a standard curve using peak area ratio (PAR) to the internal standard. Mean normalization was performed on PAR values to account for mouse-to-mouse differences in ABN inhalation efficiency and urine concentration.
Principal component analysis (PCA) was performed on mean normalized PAR values in the R statistical environment (Team, R.C. R, R Foundation for Statistical Computing, Vienna, Austria, 2017) using the prcomp function. Binary classification was performed using the Caret package (Kuhn, M. caret: Classification and Regression Training. (2017)) in the R statistical environment). […]

[3] = test system: Eml4-Alk (EA) lung adenocarcinoma model; assay: urinary ABN readout and classification in Eml4-Alk model; assay type: in vivo; details: EA mice
Source text: To assess the generalizability of ABNs to other genetic subtypes by leveraging the Eml4-Alk (EA) model Maddalo et al., Nature 516, 423-428 (2014), an autochthonous model in which intrapulmonary administration of adenovirus encoding two short guide RNAs (sgRNAs) and Cas9 results in translocation and fusion of the Eml4 and Alk genes, yielding lung adenocarcinoma that histologically resembles human disease.
Tumors were initiated in male C57BL/6 mice between 6 and 10 weeks old as described previously (50), by intratracheal administration of 50 μL adenovirus expressing the Ad-EA vector (Viraquest) (1.5×10^8 PFU in Opti-MEM with 10 mM CaCl2)).
It was determined whether the lung nanosensors could be prospectively applied to diagnose disease. […] The classifier was also evaluated on a test cohort that combined both LUAD models and again found strong classification at 7.5 weeks and 10.5 weeks (AUC7.5 wk s=0.97; AUC10.5 wk s=0.93) (FIG. 17C).
For all urine experiments, PAR values were normalized to ABN stock concentrations and then mean normalized across all reporters in a given urine sample prior to further statistical analysis. […] Ten independent train-test trials were run for each classification problem, and classification performance was evaluated with receiver operating characteristic (ROC) statistics calculated in MATLAB. […]

PA01 supernatant = assay: cleavage of FRET-paired substrates by bacterial supernatant; assay type: biochemical, Pseudomonas aeruginosa
Protocol: (§1) The specificity of LAS and ELA for P. aeruginosa cleavage was tested by collecting supernatants from PA01 or Staphylococcus aureus cultures and incubating them with FRET-paired substrates LAS-Q and ELA-Q in 384 well plates. […] To investigate whether the LAS and ELA substrates are also susceptible to cleavage by host proteases, each was incubated with recombinant mouse proteases.
(§2) Supernatant from PA01 and S. aureus were collected and added to substrates in 384 well plates and dequenching of FAM was monitored at 37° C. (Tecan). Fluorescence change at 30 minutes was reported. For recombinant protease assays, enzyme was added to the substrates in enzyme-specific buffer (MMP7 & 9 buffer: 50 mM Tris, 150 mM NaCl, 5 mM CaCl2), […], pH 7.5; Thrombin: PBS; NE: 100 mM HEPES, 500 mM NaCl, 0.05% Tween 20) in a 384 well plate for time-lapse fluorimetry to measure dequenching at 37° C. (Tecan).

[4] = test system: Staphylococcus aureus supernatant; assay: as above; assay type: biochemical; details: S. aureus culture supernatant, fluorescence change at 30 minutes
Protocol: as §1, §2

[5] = test system: P. aeruginosa clinical isolate strains; assay: cleavage of FRET-paired substrates by clinical isolate supernatants; assay type: biochemical, Pseudomonas aeruginosa
Protocol: P. aeruginosa strains isolated from de-identified clinical samples were generously provided by Dr. Deborah Hung, MD, PhD (Massachusetts General Hospital). Cultures of each were grown in LB broth overnight, then were subcultured in fresh LB and each strain grown to OD-matched mid log phase (OD600˜0.5). Supernatants were collected by centrifugation and substrate cleavage was monitored as described above.

MMP13 = MMP13 (Mus musculus, UniProt P33435); assay: recombinant host protease cleavage assay; assay type: biochemical
Protocol: as §1, §2

MMP7 = molecular target: T1, MMP7 (Mus musculus, UniProt Q10738); assay: recombinant host protease cleavage assay; assay type: biochemical
T1 sequence (Q10738 95-264): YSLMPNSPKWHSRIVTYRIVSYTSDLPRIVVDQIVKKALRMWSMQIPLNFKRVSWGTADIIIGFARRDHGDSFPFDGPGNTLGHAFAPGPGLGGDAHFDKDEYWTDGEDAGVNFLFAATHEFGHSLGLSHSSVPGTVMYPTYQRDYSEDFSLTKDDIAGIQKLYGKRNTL
Protocol: as §1, §2

neutrophil elastase = molecular target: T2, neutrophil elastase (Mus musculus, UniProt Q3UP87); assay: recombinant host protease cleavage assay; assay type: biochemical
T2 sequence (Q3UP87 27-265): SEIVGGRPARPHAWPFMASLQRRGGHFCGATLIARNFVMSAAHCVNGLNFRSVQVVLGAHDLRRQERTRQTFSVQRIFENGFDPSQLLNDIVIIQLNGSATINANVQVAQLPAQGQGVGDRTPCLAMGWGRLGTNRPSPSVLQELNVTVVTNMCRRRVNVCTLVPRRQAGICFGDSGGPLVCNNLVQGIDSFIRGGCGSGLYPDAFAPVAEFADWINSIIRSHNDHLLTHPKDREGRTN
Protocol: as §1, §2

thrombin = thrombin (Mus musculus, UniProt P19221); assay: recombinant host protease cleavage assay; assay type: biochemical
Protocol: as §1, §2

Substance	protease class(es) cleaving the substrate in vitro [1]	urinary reporter enrichment [2]	urinary reporter enrichment [3]	cleavage by supernatant (fluorescence signal) (PA01 supernatant; PA01 culture supernatant, fluorescence change at 30 minutes)	cleavage potency by Michaelis-Menten type analysis (PA01 supernatant; range of substrate concentrations, compared with LAS substrate)	cleavage by supernatant (fluorescence signal) [4]	extent of cleavage compared with LAS-Q ([5]; bacterial-derived proteases)	strains whose supernatant gave significant cleavage ([5]; five clinical isolate strains)	cleavage by recombinant protease (MMP13)	cleavage by recombinant protease (MMP7)	cleavage by recombinant protease (neutrophil elastase)	cleavage by recombinant protease (thrombin)
PP01: ABN: reporter e(+2G)(+6V)ndneeGFFsAr, ANP, substrate PQGIWGQ, nanocarrier PEG8-40 kDa (chain 1 [dE]G[+6V][dN][dD][dN][dE][dE]GFF[dS]A[dR]; not fully specified (some residues); printed as PP01: ABN: reporter e(+2G)(+6V)ndneeGFFsAr, ANP, substrate PQGIWGQ, nanocarrier PEG8-40 kDa; also: ANP photolabile linker, PEG8-40 kDa nanocarrier, linkage of reporter, ANP, substrate and carrier not given here)	metalloprotease-specific	not in KP mice	consistent enrichment									
ELA-Q: FRET-paired (FAM fluorophore, Dabcyl quencher) substrate for elastases including neutrophil elastase; includes SEQ ID NO: 47 (GAAFAGK(FAM); also: Dabcyl quencher, site not given here)				Significant increases	more potently cleaved	Significant increases	more extensively cleaved	3 of the 5 strains	resist cleavage	resist cleavage	cleaved	resist cleavage

Source: patent publication US12173349B2, “Lung protease nanosensors and uses thereof” (Massachusetts Institute of Technology, priority 2018, dated 2024)
